“And” between values parts separate entries of the source, which are not always exact repeats. Equal values may be shown once.
Test: solvent given as SMILES

SMILES: O=C(O)COc1ccc2[nH]c3c(c2c1)CCCC3=O
- fluorescence lifetime (in C1CCOC1): 0.319 ns
- fluorescence lifetime (in C1COCCO1): 0.537 ns
- fluorescence lifetime (in CC#N): 0.969 ns
- fluorescence lifetime (in CCCCCCCCCCCCO): 1.16 ns
- fluorescence lifetime (in CCCCCCCCCCO): 1.14 ns
- fluorescence lifetime (in CCCCCCCCO): 1.19 ns
- fluorescence lifetime (in CCCCCCO): 1.21 ns
- fluorescence lifetime (in CCCCO): 1.11 ns
- fluorescence lifetime (in CCO): 1.52 ns
- fluorescence lifetime (in CCOC(C)=O): 0.464 ns
- fluorescence lifetime (in CN(C)C=O): 1.91 ns
- fluorescence lifetime (in CO): 1.72 ns
- fluorescence lifetime (in CS(C)=O): 2.34 ns
- fluorescence lifetime (in Cc1ccccc1): 0.585 ns
- fluorescence lifetime (in O): 1.77 ns
- fluorescence lifetime (in c1ccccc1): 0.632 ns

SMILES: CCCCCCOc1ccc(N(c2ccc(OCCCCCC)cc2)c2ccc(-c3sc(-c4ccc(N(c5ccc(OCCCCCC)cc5)c5ccc(OCCCCCC)cc5)cc4)c4nc(-c5ccc(OC)cc5)c(-c5ccc(OC)cc5)nc34)cc2)cc1
- fluorescence lifetime (in CN(C)C=O): 0.57 ns

SMILES: CC1(C)c2ccccc2N(c2ccc(-c3n[n+]4c(o3)-c3ccccc3O[B-]4(F)F)cc2)c2ccccc21
- fluorescence lifetime (in ClCCl): 22 ns

SMILES: O=P1(c2ccccc2)c2ccccc2-c2sc3ccccc3c21 (stereo unspecified)
- fluorescence lifetime (in ClCCl): 11.3 ns

SMILES: CC(C)(C)c1ccc(Oc2cc3c4c(cc(Oc5ccc(C(C)(C)C)cc5)c5c6c(Oc7ccc(C(C)(C)C)cc7)cc7c8c(cc(Oc9ccc(C(C)(C)C)cc9)c(c2c45)c86)C(=O)N(c2ccccc2)C7=O)C(=O)N(c2ccccc2)C3=O)cc1
- fluorescence lifetime (in ClC(Cl)Cl): 6 ns

SMILES: CC1=C2c3ccccc3C(c3[nH]c(C)cc3C)=[N+]2[B-](F)(F)n2c(C)cc(C)c21
- fluorescence lifetime (in ClCCl): 7.3 ns

SMILES: CC(C)(C)NC(=O)c1c([Si](C)(C)C)cc2ccc3cccc4ccc1c2c34
- fluorescence lifetime (in ClC(Cl)Cl): 6.53 ns

SMILES: C(=C\c1ccc2ccccc2c1)/c1ccc(Nc2ccccc2)cc1
- fluorescence lifetime (in CC#N): 0.43 ns
- fluorescence lifetime (in CCCCCC): 0.34 ns

SMILES: COc1ccc2c(-c3nc(-c4ccccc4)no3)cc(=O)oc2c1
- fluorescence lifetime (in CCO): 6.4 ns
- fluorescence lifetime (in ClC(Cl)Cl): 4.8 ns

SMILES: COc1ccc(C2=C3C(C)=CC(C)=[N+]3[B-](F)(F)n3c(C)cc(C)c32)cc1
- fluorescence lifetime (in Cc1ccccc1): 4.86 ns

SMILES: Nc1ccc2c(c1)C(=O)c1ccccc1-2
- fluorescence lifetime (in C1CCCCC1): 4 ns
- fluorescence lifetime (in c1ccccc1): 0.84 ns

SMILES: N=c1oc2cccc3c4c(-c5ccccc5)oc5cccc(c(c1-c1ccccc1)c23)c54
- fluorescence lifetime (in ClC(Cl)Cl): 2.6 ns

SMILES: O=[N+]([O-])c1ccc(-c2nc3c(c4c2-c2ccccc2CC4)-c2ccccc2CC3)cc1
- fluorescence lifetime (in CC#N): 2.05 ns
- fluorescence lifetime (in CS(C)=O): 1.09 ns
- fluorescence lifetime (in ClCCl): 1.13 ns

SMILES: CN(C)c1ccc2nc(-c3ccc(C=C4C(=O)c5ccccc5C4=O)cc3)sc2c1
- fluorescence lifetime (in C1CCCCC1): 0.41 ns

SMILES: c1ccc(/C(=C(\c2ccccc2)c2cc(-c3ccccc3)ccc2-c2ccc(-c3ccccc3)cc2)c2cc(-c3ccccc3)ccc2-c2ccc(-c3ccccc3)cc2)cc1
- fluorescence lifetime (in C1CCOC1): 7.9 ns

SMILES: C(=C\c1c2ccccc2cc2ccccc12)/c1ccc2ccccc2c1
- fluorescence lifetime (in CC1CCCCC1): 3.3 ns
- fluorescence lifetime (in CC#N): 3.6 ns

SMILES: CC(C)(C)NS(=O)(=O)c1ccc2c(c1)C(=O)/C(=C1\Sc3ccc(S(=O)(=O)NC(C)(C)C)cc3C1=O)S2
- fluorescence lifetime (in C1COCCO1): 12.4 ns
- fluorescence lifetime (in CN(C)C=O): 8.33 ns
- fluorescence lifetime (in CS(C)=O): 0.07 ns

SMILES: c1ccc(N(c2ccccc2)c2cc3c4c(c2)N(c2ccccc2)c2cc5c(cc2B4c2ccccc2N3c2ccccc2)B2c3ccccc3N(c3ccccc3)c3cc(N(c4ccccc4)c4ccccc4)cc(c32)N5c2ccccc2)cc1
- fluorescence lifetime (in Cc1ccccc1-c1cccc(Oc2cc3c4c(c2)Oc2cc(-c5ccccc5C)ccc2B4c2ccc(-c4ccccc4C)cc2O3)c1): 4.1 ns

SMILES: O=c1cc(C(F)(F)F)c2cc3c4c(c2o1)CCCN4CCC3
- fluorescence lifetime (in C1CCCCC1): 4.3 ns
- fluorescence lifetime (in CC#N): 5.6 ns
- fluorescence lifetime (in CCC#N): 6.55 ns
- fluorescence lifetime (in CCCCCCCl): 5.72 ns
- fluorescence lifetime (in CCCCl): 5.78 ns
- fluorescence lifetime (in CCO): 3.4 ns and 4.56 ns
- fluorescence lifetime (in CCOC(C)=O): 5.4 ns
- fluorescence lifetime (in OCC(F)(F)F): 3.97 ns
- fluorescence lifetime (in OCC(O)CO): 3.5 ns

SMILES: CC(=O)Nc1ccc(S(=O)(=O)O)c(/N=N/c2c(O)c3ccccc3n(C)c2=O)c1
- fluorescence lifetime (in CS(C)=O): 0.06 ns

SMILES: CCCCCCN(CCCCCC)c1ccc(C#Cc2ccc(C(F)(F)F)cc2)cc1
- fluorescence lifetime (in ClCCl): 2.1 ns

SMILES: CC(C)(C)C1Nc2ccccc2C(=O)N1Cc1ccccc1 (stereo unspecified)
- fluorescence lifetime (in CC#N): 2.43 ns
- fluorescence lifetime (in CCCCCCCCCCCCCCCC): 4.97 ns
- fluorescence lifetime (in CO): 5.24 ns
- fluorescence lifetime (in ClC(Cl)Cl): 5.86 ns
- fluorescence lifetime (in c1ccccc1): 5.11 ns

SMILES: N#C/C(=C\c1ccc(C#N)cc1)c1nc(-c2ccccc2)c(-c2ccccc2)s1
- fluorescence lifetime (in CC#N): 3.2 ns

SMILES: CC1=CC(C)=[N+]2C1=Cc1cccn1[B-]2(F)F
- fluorescence lifetime (in CCCCCC): 6.21 ns
- fluorescence lifetime (in CO): 6.34 ns
- fluorescence lifetime (in ClCCl): 5.89 ns

SMILES: C(=C\c1cc2ccccc2c2ccccc12)/c1c2ccccc2cc2ccccc12
- fluorescence lifetime (in C1CCOC1): 4.63 ns

SMILES: CN(C)c1c2ccccc2cc2ccccc12
- fluorescence lifetime (in C1CCCCC1): 4.3 ns
- fluorescence lifetime (in C1CCOC1): 5.3 ns
- fluorescence lifetime (in C1COCCO1): 0.8 ns
- fluorescence lifetime (in CC#N): 3.9 ns
- fluorescence lifetime (in CCO): 5.1 ns
- fluorescence lifetime (in CN(C)C=O): 6.5 ns
- fluorescence lifetime (in CO): 4 ns
- fluorescence lifetime (in COCCOC): 4.8 ns
- fluorescence lifetime (in CS(C)=O): 8.2 ns
- fluorescence lifetime (in O): 5.7 ns
- fluorescence lifetime (in OCC(O)CO): 8.9 ns
- fluorescence lifetime (in OCCO): 7 ns

SMILES: c1ccc(-c2cc(-c3ccc(-c4nc(-c5ccccn5)c(-c5ccccn5)[nH]4)cc3)cc(-c3ccccn3)n2)nc1
- fluorescence lifetime (in C1CCOC1): 1.46 ns
- fluorescence lifetime (in CC#N): 1.44 ns
- fluorescence lifetime (in CC(C)=O): 1.09 ns
- fluorescence lifetime (in CCCCCC): 0.065 ns
- fluorescence lifetime (in CCO): 2.04 ns
- fluorescence lifetime (in CCOC(C)=O): 1.18 ns
- fluorescence lifetime (in CN(C)C=O): 1.91 ns
- fluorescence lifetime (in CO): 1.41 ns
- fluorescence lifetime (in CS(C)=O): 2.04 ns
- fluorescence lifetime (in ClC(Cl)Cl): 1.19 ns
- fluorescence lifetime (in ClCCl): 3.43 ns
- fluorescence lifetime (in O): 2.39 ns

SMILES: Fc1c(-n2c3ccccc3c3ccccc32)c(F)c(-n2c3ccccc3c3ccccc32)c(-c2nnc(-c3ccccc3)o2)c1-n1c2ccccc2c2ccccc21
- fluorescence lifetime (in Cc1ccccc1): 3.9 ns

SMILES: COc1ccc2c(c1)c1c(OC)c3ccccc3c(OC)c1n2C
- fluorescence lifetime (in C1CCCCC1): 24.1 ns
- fluorescence lifetime (in CC#N): 31 ns
- fluorescence lifetime (in CO): 30.7 ns
- fluorescence lifetime (in ClCCl): 27.1 ns

SMILES: N#Cc1cc(-n2c3ccccc3c3ccccc32)c(C#N)cc1-n1c2ccccc2c2ccccc21
- fluorescence lifetime (in c1ccc2c(c1)c1ccccc1n2P1(n2c3ccccc3c3ccccc32)=NP(n2c3ccccc3c3ccccc32)(n2c3ccccc3c3ccccc32)=NP(n2c3ccccc3c3ccccc32)(n2c3ccccc3c3ccccc32)=N1): 34 ns

SMILES: CC(C)(C)c1cc2cc(N(c3ccccc3)c3ccccc3)c3cc(C(C)(C)C)cc4cc(N(c5ccccc5)c5ccccc5)c(c1)c2c43
- fluorescence lifetime (in CCCCCC): 4.6 ns

SMILES: CCN(CC)c1ccc2c(-c3ccccc3C(=O)[O-])c3ccc(=[N+](CC)CC)cc-3oc2c1
- fluorescence lifetime (in CC#N): 1.74 ns
- fluorescence lifetime (in CC(C)O): 3.26 ns
- fluorescence lifetime (in CCCCCCCCO): 3.42 ns
- fluorescence lifetime (in CCCCCCO): 3.41 ns
- fluorescence lifetime (in CCCCO): 3.37 ns
- fluorescence lifetime (in CCCO): 3.27 ns
- fluorescence lifetime (in CCO): 2.96 ns
- fluorescence lifetime (in CN(C)C=O): 2.33 ns
- fluorescence lifetime (in CO): 2.5 ns and 2.46 ns
- fluorescence lifetime (in O): 1.74 ns and 1.75 ns
- fluorescence lifetime (in [2H]O[2H]): 1.84 ns

SMILES: N#Cc1c(-n2c3ccccc3c3cc(Br)ccc32)c(-n2c3ccccc3c3cc(Br)ccc32)c(C#N)c(-n2c3ccccc3c3cc(Br)ccc32)c1-n1c2ccccc2c2cc(Br)ccc21
- fluorescence lifetime (in Cc1ccccc1): 0.4 ns

SMILES: COc1ccc2c3c(OC)c4ccccc4c(OC)c3n(C)c2c1
- fluorescence lifetime (in C1CCCCC1): 14.3 ns
- fluorescence lifetime (in CC#N): 19.1 ns
- fluorescence lifetime (in CO): 18.3 ns
- fluorescence lifetime (in ClCCl): 12.1 ns

SMILES: CC(C)c1cc(C(C)C)c(B2c3cc(-n4c5ccccc5c5ccccc54)ccc3N(c3ccccc3)c3ccc(-n4c5ccccc5c5ccccc54)cc32)c(C(C)C)c1
- fluorescence lifetime (in c1cc(-c2cccc(-n3c4ccccc4c4ccccc43)c2)cc(-n2c3ccccc3c3ccccc32)c1): 15 ns

SMILES: CC(C)(C)c1ccc(C2=C(c3ccc(N4c5ccccc5C(C)(C)c5ccccc54)cc3)S(=O)(=O)c3c2sc(-c2ccc(N4c5ccccc5C(C)(C)c5ccccc54)cc2)c3-c2ccc(C(C)(C)C)cc2)cc1
- fluorescence lifetime (in C1CCOC1): 1.61 ns

SMILES: CCN(CC)c1ccc2c(c1)oc(=O)c1cc3cnn(-c4ccccc4)c3nc12
- fluorescence lifetime (in ClCCl): 16.9 ns

SMILES: CC[n+]1nc2cc3c4c(c2c2cc(F)ccc21)CCCN4CCC3
- fluorescence lifetime (in O): 4.4 ns

SMILES: COC(=O)/C(C#N)=c1\s/c(=c2/s/c(=C(/C#N)C(=O)OC)c3cc(-c4ccc5c(c4)C(C)(C)c4ccccc4-5)sc23)c2sc(-c3ccc4c(c3)C(C)(C)c3ccccc3-4)cc12
- fluorescence lifetime (in Cc1ccccc1): 4.38 ns

SMILES: CCCCCCCCC1(CCCCCCCC)c2cc(-c3ccc([N+](=O)[O-])cc3)ccc2-c2ccc(-c3ccc([N+](=O)[O-])cc3)cc21
- fluorescence lifetime (in CN(C)C=O): 1.92 ns
- fluorescence lifetime (in CS(C)=O): 1.82 ns

SMILES: N#Cc1cccc(C#N)c1-n1c2ccccc2c2cc(-c3ccc4c(c3)c3ccccc3n4-c3c(C#N)cccc3C#N)ccc21
- fluorescence lifetime (in Cc1ccccc1): 28 ns

SMILES: CC1(C)c2ccccc2N(c2ccc(-c3nc([C@]45CC6CC(C[C@@H](C6)C4)C5)nc([C@]45C[C@H]6C[C@@H](C[C@H](C6)C4)C5)n3)cc2)c2ccccc21
- fluorescence lifetime (in CC(C)(C)c1ccc(-n2c3ccc([Si](c4ccccc4)(c4ccccc4)c4ccccc4)cc3c3cc([Si](c4ccccc4)(c4ccccc4)c4ccccc4)ccc32)cc1): 14.4 ns

SMILES: COc1ccc(/N=N/c2c(O)c3ccccc3n(C)c2=O)c(S(=O)(=O)O)c1
- fluorescence lifetime (in CS(C)=O): 0.04 ns

SMILES: N#CC(C#N)=C(c1ccc(-n2ccc3ccccc32)cc1)c1ccc(-n2ccc3ccccc32)cc1
- fluorescence lifetime (in Cc1ccccc1): 5.2 ns

SMILES: c1ccc(-c2nc(-c3ccc(N4c5ccccc5C(c5ccccc5)(c5ccccc5)c5ccccc54)cc3)cc(-c3ccc(N4c5ccccc5C(c5ccccc5)(c5ccccc5)c5ccccc54)cc3)n2)cc1
- fluorescence lifetime (in O=P(c1ccccc1)(c1ccccc1)c1ccc2oc3ccc(P(=O)(c4ccccc4)c4ccccc4)cc3c2c1): 11 ns

SMILES: COc1ccc(C2=C(C)C3=C(c4c(-c5ccccn5)nc5ccccn45)c4c(C)cc(C)n4[B-](F)(F)[N+]3=C2C)cc1
- fluorescence lifetime (in ClCCl): 2.2 ns

SMILES: Cn1c(=O)c(/N=N/c2ccc(S(=O)(=O)O)c3ccccc23)c(O)c2ccccc21
- fluorescence lifetime (in CS(C)=O): 0.05 ns

SMILES: O=C(O)c1ccccc1-c1nc(-c2ccccc2)c2ccccn12
- fluorescence lifetime (in CC#N): 5.5 ns

SMILES: Cc1ccc2c(c1)c(=O)c1ccccc1n2CCCCCC(=O)O
- fluorescence lifetime (in O): 15.1 ns

SMILES: CCn1c2sccc2c2c3nsnc3c3c4ccsc4n(CC)c3c21
- fluorescence lifetime (in C1CCOC1): 15 ns
- fluorescence lifetime (in CCOC(C)=O): 15.6 ns
- fluorescence lifetime (in CN(C)C=O): 16.8 ns
- fluorescence lifetime (in Cc1ccccc1): 13 ns
- fluorescence lifetime (in ClCCl): 14.6 ns

SMILES: CCCCCCCC[Si](C)(C)c1cccc2ccccc12
- fluorescence lifetime (in C1CCCCC1): 62 ns
